Reference: ChEMBL document CHEMBL1201862, “PubChem BioAssay data set” (2004)
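Following 48 hours of exposure in 96-well plates, responses at five concentrations were used to interpolate endpoints linearly. GI50: concentration for 50% inhibition of growth.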 Active and inactive are the calls of the source. Cut-off read from the data, not from the text of the source: active = GI50 up to about 1.1 µM and inactive = higher.

Columns and labels:
Test in all cases: NCI-60 cell line screen, 48 h
TK-10 = system: TK-10
RPMI-8226 = system: RPMI-8226
CCRF-CEM = system: CCRF-CEM
HT-29 = system: HT-29
U-251 = system: U-251
MDA-MB-435 = system: MDA-MB-435
SNB-19 = system: SNB-19
KM12 = system: KM12
OVCAR-5 = system: OVCAR-5
NCI-H460 = system: NCI-H460
SK-MEL-28 = system: SK-MEL-28
T47D = system: T47D
SN12C = system: SN12C
SK-MEL-2 = system: SK-MEL-2
M14 = system: M14
OVCAR-3 = system: OVCAR-3
EKVX = system: EKVX
MDA-N = system: MDA-N
SW-620 = system: SW-620
K562 = system: K562
SF-295 = system: SF-295
HOP-92 = system: HOP-92
NCI/ADR-RES = system: NCI/ADR-RES
BT-549 = system: BT-549
A498 = system: A498
IGROV-1 = system: IGROV-1
SR = system: SR
MOLT-4 = system: MOLT-4
UACC-62 = system: UACC-62
OVCAR-4 = system: OVCAR-4
COLO 205 = system: COLO 205
NCI-H23 = system: NCI-H23
CAKI-1 = system: CAKI-1
PC-3 = system: PC-3
MDA-MB-231 = system: MDA-MB-231
LOX IMVI = system: LOX IMVI
UO-31 = system: UO-31
MCF7 = system: MCF7
ACHN = system: ACHN
HCC 2998 = system: HCC 2998
OVCAR-8 = system: OVCAR-8
SF-268 = system: SF-268
HOP-62 = system: HOP-62
Hs-578T = system: Hs-578T
HCT-15 = system: HCT-15
SK-OV-3 = system: SK-OV-3
SK-MEL-5 = system: SK-MEL-5
786-0 = system: 786-0
DU-145 = system: DU-145
NCI-H226 = system: NCI-H226
UACC-257 = system: UACC-257
Malme-3M = system: Malme-3M
A549 = system: A549
RXF 393 = system: RXF 393
HCT-116 = system: HCT-116
SNB-75 = system: SNB-75

Measured: GI50

C[C@@H](NC(=O)[C@@H]1C[C@]1(C)COC(=O)c1cc([N+](=O)[O-])cc([N+](=O)[O-])c1)c1cccc2ccccc12
> 100 µM: HCT-15
inactive: TK-10 > 100 µM | RPMI-8226 > 100 µM | CCRF-CEM > 100 µM | HT-29 52.2 µM | U-251 99.3 µM | MDA-MB-435 > 100 µM | SNB-19 > 100 µM | KM12 > 100 µM | OVCAR-5 > 100 µM | NCI-H460 > 100 µM | SK-MEL-28 > 100 µM | T47D 65.3 µM | SN12C > 100 µM | SK-MEL-2 > 100 µM | M14 > 100 µM | OVCAR-3 24.3 µM | EKVX > 100 µM | MDA-N > 100 µM | SW-620 > 100 µM | K562 > 100 µM | SF-295 93.5 µM | HOP-92 80.2 µM | NCI/ADR-RES > 100 µM | BT-549 > 100 µM | A498 > 100 µM | IGROV-1 70.3 µM | SR > 100 µM | MOLT-4 > 100 µM | UACC-62 50 µM | OVCAR-4 > 100 µM | COLO 205 > 100 µM | NCI-H23 > 100 µM | CAKI-1 > 100 µM | PC-3 > 100 µM | MDA-MB-231 > 100 µM | LOX IMVI 60.1 µM | UO-31 > 100 µM | MCF7 > 100 µM | ACHN 33.7 µM | HCC 2998 > 100 µM | OVCAR-8 > 100 µM | SF-268 > 100 µM | HOP-62 53 µM | Hs-578T 20 µM | SK-OV-3 > 100 µM | SK-MEL-5 > 100 µM | 786-0 > 100 µM | DU-145 > 100 µM | NCI-H226 > 100 µM | UACC-257 > 100 µM | Malme-3M 6.87 µM | A549 > 100 µM | RXF 393 12.6 µM | HCT-116 > 100 µM | SNB-75 37.1 µM
